Molecules are shown by their SMILES.

This assay deals with T1, B7-1/CD28 (Homo sapiens, UniProt P33681).
T1 sequence (P33681 35-242 limits assumed): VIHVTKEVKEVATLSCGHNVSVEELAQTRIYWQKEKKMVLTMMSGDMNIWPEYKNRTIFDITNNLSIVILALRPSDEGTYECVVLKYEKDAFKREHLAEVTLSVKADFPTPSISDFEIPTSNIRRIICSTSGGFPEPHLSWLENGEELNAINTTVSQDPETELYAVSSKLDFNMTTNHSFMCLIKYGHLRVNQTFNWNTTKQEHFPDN
Nature of the assay: CD28/B7-1 ELISA (B7-1/CD28 binding inhibition). The conditions noted are these: CD28-Fc coated wells; B7-1-Fc-biotin/streptavidin-alkaline phosphatase detection complex; 1% DMSO. As to the method:
Evaluation of B7-1/CD28 Binding Inhibition for Test Compounds
Wells are coated with 300 ng CD28-Fc in carbonate buffer (pH 9.4) overnight at 4° C., blocked with 1% bovine serum albumin in tris-buffered saline (TBS) for 1 h at 22° C. and washed 3 times in TBS prior to assay. The detection complex is formed as follows: B7-1-Fc-biotin, prepared using NHS-LC-biotin (Pierce #21335) according to the manufacturers instructions (4.1 moles biotinimole Fc), is added at 0.8 ug/ml to streptavidin-alkaline phosphatase (Caltag Sa1008) at 1:1000 in TBS. A solution of test compound in dimethylsulfoxide (1% final) are added to this complex and incubated 30 min at 22° C. Detection complex (+/−inhibitors) is then added to the CD28 coated wells for 25 min at 22° C., washed 5 times with TBS, developed with the colorimetric substrate pNPP (Pierce #34045) in diethanolamine/MgCl2 buffer (pH 9.5) and read at 405 nm. The inhibition constant (IC50) is calculated by subtracting background binding and comparing to uninhibited (DMSO alone) controls. The inhibition constant represents the concentration of test compound required to achieve 50% inhibition.
A general note: In an ELISA, binding on a coated surface is turned into a signal by an enzyme label.
In turn, `COC(CN(C)C(=O)c1cccc(-n2[nH]c3c(c(-c4cccc(C(F)(F)F)c4)nc4c3cnn4C)c2=O)c1)OC` [Example 8, N-(2,2-dimethoxyethyl)-N-methyl-3-(6-methyl-3-oxo-4-[3-(trfluoromethyl)phenyl]-3,6-dihydrodipyrazolo[3,4-b:3,4-d]pyridin-2(1H)-yl)benzamide] showed a concentration for half-maximal inhibition (IC50) of 31 nM.

For `Cn1ncc2c3[nH]n(-c4cccc(C(=O)N5CCc6ccccc6C5)c4)c(=O)c3c(-c3cccc(C(F)(F)F)c3)nc21` [Example 52], the IC50 came out at 300 nM.

As for `CN(Cc1ccccc1)C(=O)c1cccc(-n2[nH]c3c(c(-c4cccc(C(F)(F)F)c4)nc4c3cnn4C)c2=O)c1` [Example 56], the IC50 was found to be 180 nM. The value for `Cn1ncc2c3[nH]n(-c4ccc(C(=O)N5CCCC(O)C5)cc4)c(=O)c3c(-c3cccc(C(F)(F)F)c3)nc21` (stereo not drawn) [Example 95] was 390 nM; that for `Cn1ncc2c3[nH]n(-c4cccc(C(=O)N5CCSCC5)c4)c(=O)c3c(-c3cccc(C(F)(F)F)c3)nc21` [Example 10] was 70 nM.

As to `CCOC(=O)c1cccc(NC(=O)c2cccc(-n3[nH]c4c(c(-c5cccc(C(F)(F)F)c5)nc5c4cnn5C)c3=O)c2)c1` [Example 48], the IC50 was determined as 440 nM. As for `CN(CCC#N)C(=O)c1ccc(-n2[nH]c3c(c(-c4cccc(C(F)(F)F)c4)nc4c3cnn4C)c2=O)cc1` [Example 72], the 50% inhibitory concentration (IC50) turned out to be 110 nM. Then `Cn1ncc2c3[nH]n(-c4ccc(C(=O)Nc5cccc(CO)c5)cc4)c(=O)c3c(-c3cccc(C(F)(F)F)c3)nc21` [Example 35, N-[3-(hydroxymethyl)phenyl]4-(6-methyl-3-oxo-4-[3-(trifluoromethyl)phenyl]-3,6-dihydrodipyrazolo[3,4-b:3,4-d]pyridin-2(1H)-yl)benzamide], with 17 nM. Molecule `Cn1ncc2c3[nH]n(-c4cccc(C(=O)NCC5CC5)c4)c(=O)c3c(-c3cccc(C(F)(F)F)c3)nc21` [Example 12] returned an IC50 of 80 nM. Turning to `CN(C)CCCNC(=O)c1ccc(-n2[nH]c3c(c(-c4cccc(C(F)(F)F)c4)nc4c3cnn4C)c2=O)cc1` [Example 90], the IC50 is 160 nM. For the molecule `Cn1ncc2c3[nH]n(-c4ccc(C(=O)Nc5ccc(CO)cc5)cc4)c(=O)c3c(-c3cccc(C(F)(F)F)c3)nc21` [Example 87], the concentration for half-maximal inhibition (IC50) turned out to be 44 nM.

Take `Cn1ncc2c3[nH]n(-c4ccc(S(=O)(=O)NCCCCCO)cc4)c(=O)c3c(-c3cccc(C(F)(F)F)c3)nc21` [Example 102, N-(5-Hydroxypentyl)-4-{6-methyl-3-oxo-4-[3-(trifluoromethyl)phenyl]-3,6-dihydrodipyrazolo[3,4-b:3′,4′-d]pyridin-2(1H)-yl}benzenesulfonamide]: the IC50 worked out at 670 nM. In turn, `Cn1ncc2c3[nH]n(-c4ccc(C(=O)Nc5ccc(F)c(F)c5)cc4)c(=O)c3c(-c3cccc(C(F)(F)F)c3)nc21` [Example 82] came in with an IC50 of 120 nM. The value for `COC(=O)[C@H]1CCCN1C(=O)c1cc(-n2[nH]c3c(c(-c4cccc(C(F)(F)F)c4)nc4c3cnn4C)c2=O)ccc1Cl` [Example 64] was 180 nM; that for `Cn1ncc2c3[nH]n(-c4ccc(F)c(C(=O)Nc5ccc(CO)cc5)c4)c(=O)c3c(-c3cccc(C(F)(F)F)c3)nc21` [Example 68] was 370 nM.

As to `COC(CN(C)C(=O)c1ccc(-n2[nH]c3c(c(-c4cccc(C(F)(F)F)c4)nc4c3cnn4C)c2=O)cc1)OC` [Example 80], the IC50 worked out at 170 nM. In turn, `CC(O)CNC(=O)c1cccc(-n2[nH]c3c(c(-c4cccc(C(F)(F)F)c4)nc4c3cnn4C)c2=O)c1` (stereo not drawn) [Example 19, N-(2-hydroxypropyl)-3-(6-methyl-3-oxo-4-[3-(trifluoromethyl)phenyl]-3,6-dihydrodipyrazolo[3,4-b:3,4-d]-pyridin-2(1H)-yl)benzamide] came in with a concentration for half-maximal inhibition (IC50) of 45 nM. Then `CC(O)CNC(=O)c1ccc(-n2[nH]c3c(c(-c4cccc(C(F)(F)F)c4)nc4c3cnn4C)c2=O)cc1` (stereo not drawn) [Example 76], with 50 nM; and `Cn1ncc2c3[nH]n(-c4ccc(Cl)c(C(=O)N5CCC[C@@H]5CO)c4)c(=O)c3c(-c3cccc(C(F)(F)F)c3)nc21` [Example 23, 2-(4-chloro-3-{[(2R)-2-(hydroxymethyl)pyrrolidin-1-yl]carbonyl}phenyl)-6-methyl-4-[3-(trifluoromethyl)phenyl]-1,6-dihydrodipyrazolo[3,4-b:3,4-d]pyridin-3(2H)-one], with 43 nM. For `CC(O)c1cccc(NC(=O)c2cc(-n3[nH]c4c(c(-c5cccc(C(F)(F)F)c5)nc5c4cnn5C)c3=O)ccc2F)c1` (stereo not drawn) [Example 65], the IC50 turned out to be 1000 nM.

As to `Cn1ncc2c3[nH]n(-c4ccc(C(=O)N5CCC(O)CC5)cc4)c(=O)c3c(-c3cccc(C(F)(F)F)c3)nc21` [Example 94], the IC50 worked out at 1200 nM.

As for `Cn1ncc2c3[nH]n(-c4ccc(F)c(C(=O)Nc5ccc(CCO)cc5)c4)c(=O)c3c(-c3cccc(C(F)(F)F)c3)nc21` [Example 62], the IC50 came to 380 nM. Regarding `Cn1ncc2c3[nH]n(-c4ccc(C(=O)NCCCCCO)cc4)c(=O)c3c(-c3cccc(C(F)(F)F)c3)nc21` [Example 96], the IC50 is 92 nM.

Molecule `Cn1ncc2c3[nH]n(-c4ccc(C(=O)N5CCSC5)cc4)c(=O)c3c(-c3cccc(C(F)(F)F)c3)nc21` [Example 83] yielded a half-maximal inhibitory concentration (IC50) of 110 nM.

Consider `COC(=O)c1cn(C(=O)c2cccc(-n3[nH]c4c(c(-c5cccc(C(F)(F)F)c5)nc5c4cnn5C)c3=O)c2)c2ccccc12` [Example 15], for which the concentration for half-maximal inhibition (IC50) is 63 nM. Turning to `Cn1ncc2c3[nH]n(-c4ccc(F)c(C(=O)N5CCOCC5)c4)c(=O)c3c(-c3cccc(C(F)(F)F)c3)nc21` [Example 66], the IC50 was 2400 nM. The molecule `CC1CCCN(C(=O)c2cccc(-n3[nH]c4c(c(-c5cccc(C(F)(F)F)c5)nc5c4cnn5C)c3=O)c2)C1` (stereo not drawn) [Example 57] showed an IC50 of 92 nM. The value for `Cn1ncc2c3[nH]n(-c4ccc(S(=O)(=O)NCC5CC5)cc4)c(=O)c3c(-c3cccc(C(F)(F)F)c3)nc21` [Example 106, N-cyclopropylmethyl-4-[6-methyl-3-oxo-4-(3-trfluoromethyl-phenyl)-3,6-dihydro-1H-1,2,5,6,7-pentaaza-as-indacen-2-yl]-benzenesulfonamide] was 900 nM. Take `Cn1ncc2c3[nH]n(-c4cccc(C(=O)N5CCC(O)CC5)c4)c(=O)c3c(-c3cccc(C(F)(F)F)c3)nc21` [Example 59]: the IC50 was found to be 105 nM.

Consider `CC(C)c1ccc(NC(=O)c2ccc(-n3[nH]c4c(c(-c5cccc(C(F)(F)F)c5)nc5c4cnn5C)c3=O)cc2)cc1` [Example 78], for which the IC50 amounted to 120 nM. Then `Cn1ncc2c3[nH]n(-c4ccc(C(=O)Nc5ccccc5O)cc4)c(=O)c3c(-c3cccc(C(F)(F)F)c3)nc21` [Example 74, N-(2-hydroxyphenyl)-4-{6-methyl-3-oxo-3-[3-(trfluoromethyl)phenyl]-3,6-dihydrodipyrazolo[3,4-b:3′,4′-d]pyridin-2(1H)-yl}benzamide], with 17 nM.

`Cn1ncc2c3[nH]n(-c4ccc(C(=O)N5CCCC5)cc4)c(=O)c3c(-c3cccc(C(F)(F)F)c3)nc21` [Example 81]: the IC50 worked out at 110 nM. `COC(=O)CNS(=O)(=O)c1ccc(-n2[nH]c3c(c(-c4cccc(C(F)(F)F)c4)nc4c3cnn4C)c2=O)cc1` [Example 105, methyl ({[4-(6-methyl-3-oxo-4-[3-(trifluoromethyl)phenyl]-3,6-dihydrodipyrazolo[3,4-b:3,4-d]pyridin-2(1H)-yl)phenyl]sulfonyl}amino)acetate]: the IC50 was 340 nM.

As to `Cn1ncc2c3[nH]n(-c4cccc(C(=O)N5CCC(C(=O)O)CC5)c4)c(=O)c3c(-c3cccc(C(F)(F)F)c3)nc21` [Example 54], the IC50 worked out at 860 nM. For the molecule `CN(CCC(N)=O)C(=O)c1ccc(-n2[nH]c3c(c(-c4cccc(C(F)(F)F)c4)nc4c3cnn4C)c2=O)cc1` [Example 85], the IC50 amounted to 1800 nM. `Cn1ncc2c3[nH]n(-c4ccc(C(=O)N5CCSCC5)cc4)c(=O)c3c(-c3cccc(C(F)(F)F)c3)nc21` [Example 77] returned a concentration for half-maximal inhibition (IC50) of 140 nM.

Take `Cn1ncc2c3[nH]n(-c4ccc(C(N)=O)cc4)c(=O)c3c(-c3cccc(C(F)(F)F)c3)nc21` [Example 70]: the IC50 was 38 nM. The value for `Cn1ncc2c3[nH]n(-c4ccc(C(=O)Nc5cccc(O)c5)cc4)c(=O)c3c(-c3cccc(C(F)(F)F)c3)nc21` [Example 71] was 140 nM. Take `Cn1ncc2c3[nH]n(-c4cccc(C(=O)Nc5ccc(O)cc5)c4)c(=O)c3c(-c3cccc(C(F)(F)F)c3)nc21` [Example 7, N-(4-hydroxyphenyl)-3-(6-methyl-3-oxo-4-[3-(trifluoromethyl)phenyl]-3,6-dihydrodipyrazolo[3,4-b:3,4-d]pyridin-2(1H)-yl)benzamide]: the concentration for half-maximal inhibition (IC50) was determined as 38 nM. Molecule `Cn1ncc2c3[nH]n(-c4cccc(C(=O)NCCOCCOCCN)c4)c(=O)c3c(-c3cccc(C(F)(F)F)c3)nc21` [Example 46] registered an IC50 of 150 nM. The molecule `CCC(O)c1cccc(NC(=O)c2ccc(-n3[nH]c4c(c(-c5cccc(C(F)(F)F)c5)nc5c4cnn5C)c3=O)cc2)c1` (stereo not drawn) [Example 100] came in with a concentration for half-maximal inhibition (IC50) of 800 nM. The value for `COc1ccc(CNC(=O)c2cccc(-n3[nH]c4c(c(-c5cccc(C(F)(F)F)c5)nc5c4cnn5C)c3=O)c2)cc1` [Example 60] was 180 nM.

The term IC50 denotes the concentration at which inhibition is half-maximal.

(Values after patent US6734190B2, “Dihydrodipyrazolopyridinylbenzamide and -sulfonamide inhibitors of B7-1” (Wyeth, priority 2002, dated 2004).)
